Where “and” joins values, the source holds several entries; their conditions need not be identical. Identical values can stand only once. Like-named read-outs stand apart in the source and are kept apart here.
Experiments:
H1650 = assay: Non Small Cell Lung Cancer proliferation assay (Alamar Blue reduction), H1650; format: cell-based, human; details: for IC50 / inhibition at 10 µM: Homo sapiens; for inhibition at 10 µM: NCI-H1650, primary screening; for inhibition at 10 µM / CONFIRMATION [%] 1650: 10 μM compound in 1% DMSO (v/v); for CONFIRMATION [%] 1650: percentage inhibition
Outline: (§1)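 Dose-response run: cells were counted, dispensed at 250 cells/well onto compound, incubated 48 hours at 37° C, then incubated with Alamar Blue for an additional 48 hours before fluorescence measurement. All wells held 1% DMSO final.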

A549 = assay: Dose response study (Alamar Blue), A549; format: cell-based; details: Homo sapiens, read-out: IC50 A549
Experimental: (§2) Dose response studies against 34 compounds from the pyridazinone and phenylfuran-carboxamide class were conducted. […] In addition, Tarceva was included in these dose response studies.
(§3) The dose response studies were done with the following standard procedure. First, the cells were counted and dispensed at 250 cells/well into 384-well microplates with compound. The cells were incubated for 48 hours at 37 C to complete treatment, and then alamar blue was added for an additional 48 hours. Finally, alamar blue reduction was measured and the data was loaded into ORIS, our data screening acquisition platform.

H2444 = assay: Dose response study (Alamar Blue), H2444; format: cell-based; details: Homo sapiens, read-out: IC50 H2444
Experimental: as §2, §3

H820 = assay: Dose response study (Alamar Blue), H820; format: cell-based; details: Homo sapiens, read-out: IC50 H820
Experimental: as §2, §3

H1734 = assay: Non Small Cell Lung Cancer proliferation assay (Alamar Blue reduction), H1734; format: cell-based, human
Outline: as §1

H2030 = assay: Non Small Cell Lung Cancer proliferation assay (Alamar Blue reduction), H2030; format: cell-based, human; details: for IC50 / inhibition at 10 µM: Homo sapiens; for inhibition at 10 µM: NCI-H2030, primary screening; for inhibition at 10 µM / CONFIRMATION [%] 2030: 10 μM compound in 1% DMSO (v/v); for CONFIRMATION [%] 2030: percentage inhibition
Outline: as §1

H1118 = assay: Non Small Cell Lung Cancer proliferation assay (Alamar Blue reduction), H1118; format: cell-based
[1] = NCI-H1650, 48 h, H1650, 12 point doubling dilution 10 uM to 5 nM, 48 h treatment, alamar blue additional 48 h, read-out: IC50 H1650
[2] = Homo sapiens, NCI-H1734, 48 h, H1734, 12 point doubling dilution 10 uM to 5 nM, 48 h treatment, alamar blue additional 48 h, read-out: IC50 H1734
[3] = NCI-H2030, 48 h, H2030, 12 point doubling dilution 10 uM to 5 nM, 48 h treatment, alamar blue additional 48 h, read-out: IC50 H2030
[4] = Homo sapiens, 48 h, read-out: IC50 H1118
[5] = NCI-H1650, dose response 10 M to 5 nM, IC50, read-out: Dose Response (uM) H1650
[6] = A549, 12 point doubling dilution 10 uM to 5 nM, 48 h treatment, alamar blue additional 48 h
[7] = NCI-H2444, H2444, 12 point doubling dilution 10 uM to 5 nM, 48 h treatment, alamar blue additional 48 h
[8] = NCI-H820, H820, 12 point doubling dilution 10 uM to 5 nM, 48 h treatment, alamar blue additional 48 h
[9] = Homo sapiens, NCI-H1734, H1734, 12 point doubling dilution 10 uM to 5 nM, 48 h treatment, alamar blue additional 48 h, read-out: IC50 H1734
[10] = Homo sapiens, NCI-H1734, read-out: Dose Response (uM) H1734
[11] = NCI-H2030, dose response 10 M to 5 nM, IC50, read-out: Dose Response (uM) H2030
[12] = Homo sapiens; H1118; 12 point doubling dilution 10 uM to 5 nM; 48 h treatment, alamar blue additional 48 h; read-out: IC50 H1118
[13] = NCI-H1650, phenylfuran-2-carboxamide SAR summary, read-out: IC50(uM) 1650
[14] = H1650, read-out: PRIMARY HTS [%] H1650 (percentage inhibition)
[15] = NCI-H2030, phenylfuran-2-carboxamide SAR summary, read-out: IC50(uM) 2030
[16] = H2030, read-out: PRIMARY HTS [%] H2030 (percentage inhibition)

Compound	IC50 (H1650; [1])	IC50 (H2030; [3])	IC50 (H1650; [5])	IC50 (A549; [6])	IC50 (H2444; [7])	IC50 (H820; [8])	IC50 (H1734; [9])	IC50 (H1734; [10])	IC50 (H2030; [11])	IC50 (H1118; [12])	also measured
Cc1cccc(-n2ncc(Cl)c(Cl)c2=O)c1 [compound 104122, 4,5-dichloro-2-m-tolyl-2H-pyridazin-3-one]	1.41 µM	0.29 µM	–	–	–	–	–	–	–	–	inhibition at 10 µM (H1650; read-out: percentage inhibition H1650): 48%; IC50 (A549; A549, 48 h): 1.45 µM; IC50 (H2444; NCI-H2444, 48 h): 0.24 µM; IC50 (H820; NCI-H820, 48 h): 0.18 µM; IC50 (H1734; [2]): 2.14 µM; IC50 (H1734; Homo sapiens, NCI-H1734, dose response 10 M to 5 nM, IC50, read-out: Dose Response (uM) H1734): 2.17 µM; IC50 (H1734; dose response 10 M to 5 nM, IC50, read-out: Dose Response (uM) H1734): 1.17 µM and 2.21 µM and 1.73 µM; inhibition at 10 µM (H2030; read-out: percentage inhibition H2030): 101%; IC50 (H1118; [4]): 0.34 µM; IC50 (H1118; Homo sapiens, read-out: Dose Response (uM) H1118): 0.11 µM
Cc1cccc(-n2ncc(I)c(I)c2=O)c1 [compound 267085]	3.16 µM	0.81 µM	1.93 µM	3.27 µM	0.53 µM	0.41 µM	2.99 µM	1.94 µM	0.99 µM	1.03 µM	–
Cc1ccc(-n2ncc(Cl)c(Cl)c2=O)cc1Cl [compound 267070]	> 10 µM	> 10 µM	> 10 µM	> 10 µM	> 10 µM	> 10 µM	> 10 µM	2.69 µM	5.18 µM	> 10 µM	–
COc1cccc(-n2ncc(Cl)c(Cl)c2=O)c1 [compound 267061]	1.96 µM	0.36 µM	3.52 µM	1.76 µM	0.37 µM	0.26 µM	3.04 µM	2.41 µM	0.72 µM	0.4 µM	–
COc1nn(-c2cccc(C)c2)c(=O)c(Cl)c1Cl [compound 257028]	3.04 µM	1.79 µM	2.04 µM	3.76 µM	1.17 µM	0.77 µM	3.87 µM	2.42 µM	1.26 µM	1.1 µM	–
Cc1ccc(-n2ncc(Cl)c(Cl)c2=O)cc1C [compound 257019]	4.15 µM	0.8 µM	2.4 µM	4.2 µM	0.82 µM	0.67 µM	4.65 µM	2.01 µM	0.53 µM	0.94 µM	IC50 (H1118; Homo sapiens; read-out: Dose Response (uM) H1118): 0.29 µM
CCc1cccc(-n2ncc(Cl)c(Cl)c2=O)c1 [compound 267062]	1.91 µM	0.54 µM	2.48 µM	2.81 µM	0.43 µM	0.45 µM	2.89 µM	1.75 µM	0.72 µM	0.67 µM	–
O=C(Nc1ccc(F)c(Cl)c1)c1ccc([N+](=O)[O-])o1 [compound 87200]	7.49 µM	8.51 µM	–	> 10 µM	> 10 µM	> 10 µM	> 10 µM	–	–	4.33 µM	IC50 (H1650; [13]): 0.29 µM; inhibition at 10 µM (H1650; [14]): 103%; CONFIRMATION [%] 1650 (H1650): 112%; IC50 (H2030; [15]): 1.01 µM; inhibition at 10 µM (H2030; [16]): 23%; CONFIRMATION [%] 2030 (H2030): 107%
Cc1cccc(-n2ncc(Br)c(Br)c2=O)c1 [compound 267071]	1.1 µM	0.37 µM	0.74 µM	1.62 µM	0.31 µM	0.27 µM	1.72 µM	0.8 µM	1.22 µM	0.41 µM	–
O=c1c(Cl)c(Cl)cnn1-c1ccc2c(c1)OCCO2 [compound 267068]	2.26 µM	0.47 µM	2.33 µM	1.93 µM	0.41 µM	0.32 µM	2.83 µM	2.12 µM	1.23 µM	0.48 µM	–
O=C(Nc1ccc(Cl)cc1)c1ccc([N+](=O)[O-])o1 [compound 98698, 5-nitro-furan-2-carboxylic acid (4-chloro-phenyl)-amide]	0.47 µM	0.91 µM	–	–	–	–	–	–	–	–	IC50 (H1650; [13]): 0.38 µM; inhibition at 10 µM (H1650; [14]): 101%; CONFIRMATION [%] 1650 (H1650): 133%; IC50 (A549; A549, 48 h): 1.33 µM; IC50 (H2444; NCI-H2444, 48 h): 2.43 µM; IC50 (H820; NCI-H820, 48 h): 1.83 µM; IC50 (H1734; [2]): 3.47 µM; IC50 (H2030; [15]): 1.12 µM; inhibition at 10 µM (H2030; [16]): 17%; CONFIRMATION [%] 2030 (H2030): 98%; IC50 (H1118; [4]): 0.53 µM
O=c1c(Cl)c(Cl)cnn1-c1ccc(C(F)(F)F)cc1 [compound 267060]	3.95 µM	1.11 µM	3.92 µM	5.31 µM	1.26 µM	1.48 µM	5.23 µM	1.6 µM	1.09 µM	1.66 µM	–
O=c1c(Cl)c(Cl)cnn1-c1ccc2c(c1)CCC2 [compound 267066]	> 10 µM	2.34 µM	1.69 µM	7.52 µM	1.53 µM	2.8 µM	8.85 µM	1.45 µM	1.41 µM	2.73 µM	–
NCCCOc1cccc(-n2ncc(Br)c(Br)c2=O)c1 [compound 273634]	0.51 µM	0.47 µM	1.36 µM	1.65 µM	0.4 µM	0.29 µM	1.23 µM	0.93 µM	0.67 µM	0.57 µM	–

Source: patent US20100210649A1, “PYRIDAZINONES AND FURAN-CONTAINING COMPOUNDS” (Sloan-Kettering Institute for Cancer Research, priority 2006, published 2010)
